Assay results published in ChEMBL document CHEMBL5346859, “Dual-target Janus kinase (JAK) inhibitors: Comprehensive review on the JAK-based strategies for treating solid or hematological malignancies and immune-related diseases” (Eur J Med Chem, 2022).
Values belong to the compound of their own block, whether it stands above or below them.

Legend:
MV4-11 = experiment: Antitumor activity against human MV4-11 cells harboring FLT3 […] mutant xenografted acute myeloid leukemia BALB/c mouse model assessed as tumor growth inhibition at 40 mg/kg, po qd administered daily for 21 days relative to control; format: functional; conditions: MV4-11, 504 h, time 21 day, read-out: TGI
[1] = target: T1, Tyrosine-protein kinase JAK1 (Homo sapiens, UniProt P23458); experiment: Inhibition of recombinant GST-tagged JAK1 catalytic domain (unknown origin) using pEY (4:1) as substrate incubated for 120 mins in presence of 33P-labeled ATP
T1 sequence (P23458 whole entry, the tested form may be a part): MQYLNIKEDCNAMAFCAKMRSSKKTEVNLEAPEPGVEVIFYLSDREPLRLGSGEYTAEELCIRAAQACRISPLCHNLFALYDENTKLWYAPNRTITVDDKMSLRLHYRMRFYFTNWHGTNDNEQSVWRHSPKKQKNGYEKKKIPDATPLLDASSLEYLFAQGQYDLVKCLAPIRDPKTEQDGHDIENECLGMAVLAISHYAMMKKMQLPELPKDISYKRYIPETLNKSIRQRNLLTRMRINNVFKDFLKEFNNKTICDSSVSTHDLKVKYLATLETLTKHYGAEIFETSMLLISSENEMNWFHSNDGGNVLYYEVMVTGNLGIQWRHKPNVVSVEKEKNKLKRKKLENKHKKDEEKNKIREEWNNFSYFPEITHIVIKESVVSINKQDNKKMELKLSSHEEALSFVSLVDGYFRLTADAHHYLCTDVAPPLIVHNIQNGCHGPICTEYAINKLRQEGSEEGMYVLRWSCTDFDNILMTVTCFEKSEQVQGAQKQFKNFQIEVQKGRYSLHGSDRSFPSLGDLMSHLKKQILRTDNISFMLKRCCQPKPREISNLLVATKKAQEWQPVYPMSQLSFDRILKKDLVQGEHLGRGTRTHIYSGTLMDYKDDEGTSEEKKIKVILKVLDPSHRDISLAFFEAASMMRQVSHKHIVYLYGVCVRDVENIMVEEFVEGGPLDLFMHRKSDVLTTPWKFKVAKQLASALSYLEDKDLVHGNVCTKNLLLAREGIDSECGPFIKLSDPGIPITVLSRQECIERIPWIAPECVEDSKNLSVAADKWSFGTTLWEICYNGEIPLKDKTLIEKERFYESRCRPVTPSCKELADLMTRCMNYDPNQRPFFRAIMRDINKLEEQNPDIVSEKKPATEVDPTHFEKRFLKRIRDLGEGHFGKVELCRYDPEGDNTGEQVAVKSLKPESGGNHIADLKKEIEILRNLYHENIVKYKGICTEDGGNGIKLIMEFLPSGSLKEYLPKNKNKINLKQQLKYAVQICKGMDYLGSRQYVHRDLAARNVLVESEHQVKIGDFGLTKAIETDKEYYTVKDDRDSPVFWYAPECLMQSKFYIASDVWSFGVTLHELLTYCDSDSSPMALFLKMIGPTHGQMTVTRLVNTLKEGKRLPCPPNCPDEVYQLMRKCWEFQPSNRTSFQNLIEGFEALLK

[2] = target: T2, Proto-oncogene tyrosine-protein kinase Src (Homo sapiens, UniProt P12931); experiment: Inhibition of recombinant GST-tagged c-Src catalytic domain (unknown origin) using pEY (4:1) as substrate incubated for 120 mins in presence of 33P-labeled ATP
T2 sequence (P12931 2-536 limits assumed): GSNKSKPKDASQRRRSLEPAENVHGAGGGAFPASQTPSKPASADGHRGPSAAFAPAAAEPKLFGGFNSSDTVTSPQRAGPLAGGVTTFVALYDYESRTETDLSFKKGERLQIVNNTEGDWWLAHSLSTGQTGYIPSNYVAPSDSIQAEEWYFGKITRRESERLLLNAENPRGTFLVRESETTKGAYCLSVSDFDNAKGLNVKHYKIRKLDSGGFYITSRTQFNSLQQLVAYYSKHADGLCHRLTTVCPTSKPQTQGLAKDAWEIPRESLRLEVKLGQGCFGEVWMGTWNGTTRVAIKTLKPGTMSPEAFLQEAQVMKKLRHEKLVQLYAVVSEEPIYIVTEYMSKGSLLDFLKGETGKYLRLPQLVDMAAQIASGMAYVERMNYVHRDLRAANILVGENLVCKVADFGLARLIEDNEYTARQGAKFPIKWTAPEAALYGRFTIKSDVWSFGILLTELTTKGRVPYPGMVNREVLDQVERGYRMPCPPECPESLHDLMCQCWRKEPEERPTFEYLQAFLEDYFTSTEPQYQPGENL

[3] = target: T3, Non-receptor tyrosine-protein kinase TYK2 (Homo sapiens, UniProt P29597); experiment: Inhibition of recombinant GST-tagged TYK2 catalytic domain (unknown origin) using pEY (4:1) as substrate incubated for 120 mins in presence of 33P-labeled ATP
T3 sequence (P29597 whole entry, the tested form may be a part): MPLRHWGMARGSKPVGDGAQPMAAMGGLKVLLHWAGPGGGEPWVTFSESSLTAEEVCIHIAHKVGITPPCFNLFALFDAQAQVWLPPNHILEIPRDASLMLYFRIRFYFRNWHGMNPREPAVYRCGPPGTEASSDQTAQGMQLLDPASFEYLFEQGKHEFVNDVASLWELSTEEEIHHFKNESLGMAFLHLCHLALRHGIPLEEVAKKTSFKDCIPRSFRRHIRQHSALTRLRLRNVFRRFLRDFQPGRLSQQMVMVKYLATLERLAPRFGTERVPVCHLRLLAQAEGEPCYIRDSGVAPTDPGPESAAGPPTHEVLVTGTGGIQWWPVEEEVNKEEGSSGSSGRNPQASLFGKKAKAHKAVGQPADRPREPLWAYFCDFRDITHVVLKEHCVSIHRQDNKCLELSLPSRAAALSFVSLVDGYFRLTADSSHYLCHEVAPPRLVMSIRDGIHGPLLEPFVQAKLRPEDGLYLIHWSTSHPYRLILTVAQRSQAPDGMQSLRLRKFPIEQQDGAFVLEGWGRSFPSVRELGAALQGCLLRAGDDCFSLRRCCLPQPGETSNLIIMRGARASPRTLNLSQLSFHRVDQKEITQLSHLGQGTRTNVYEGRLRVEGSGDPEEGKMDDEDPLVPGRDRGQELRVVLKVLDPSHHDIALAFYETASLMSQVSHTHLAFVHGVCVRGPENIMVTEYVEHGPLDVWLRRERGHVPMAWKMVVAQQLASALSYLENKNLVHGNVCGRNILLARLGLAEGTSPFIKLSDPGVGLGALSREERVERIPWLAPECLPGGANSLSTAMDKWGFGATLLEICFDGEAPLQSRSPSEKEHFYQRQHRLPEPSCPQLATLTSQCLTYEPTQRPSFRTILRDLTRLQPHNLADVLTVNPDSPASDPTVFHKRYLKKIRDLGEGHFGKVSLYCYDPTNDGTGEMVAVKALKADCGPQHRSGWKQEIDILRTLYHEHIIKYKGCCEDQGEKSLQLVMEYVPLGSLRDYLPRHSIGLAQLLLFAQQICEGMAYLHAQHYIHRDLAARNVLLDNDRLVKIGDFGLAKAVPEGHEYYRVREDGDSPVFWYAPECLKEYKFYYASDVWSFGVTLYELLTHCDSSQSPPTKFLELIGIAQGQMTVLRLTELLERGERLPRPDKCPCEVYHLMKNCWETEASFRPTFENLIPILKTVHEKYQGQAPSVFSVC

A2058 = experiment: Antitumor activity against human A2058 cells xenografted in NSG mouse assessed as tumor growth inhibition at 25 mg/kg, po administered twice daily for 18 days relative to control; format: functional; conditions: A2058, 432 h, time 18 day, read-out: TGI
[4] = target: T4, Tyrosine-protein kinase JAK2 (Homo sapiens, UniProt O60674); experiment: Inhibition of recombinant GST-tagged JAK2 catalytic domain (unknown origin) using pEY (4:1) as substrate incubated for 120 mins in presence of 33P-labeled ATP
T4 sequence (O60674 whole entry, the tested form may be a part): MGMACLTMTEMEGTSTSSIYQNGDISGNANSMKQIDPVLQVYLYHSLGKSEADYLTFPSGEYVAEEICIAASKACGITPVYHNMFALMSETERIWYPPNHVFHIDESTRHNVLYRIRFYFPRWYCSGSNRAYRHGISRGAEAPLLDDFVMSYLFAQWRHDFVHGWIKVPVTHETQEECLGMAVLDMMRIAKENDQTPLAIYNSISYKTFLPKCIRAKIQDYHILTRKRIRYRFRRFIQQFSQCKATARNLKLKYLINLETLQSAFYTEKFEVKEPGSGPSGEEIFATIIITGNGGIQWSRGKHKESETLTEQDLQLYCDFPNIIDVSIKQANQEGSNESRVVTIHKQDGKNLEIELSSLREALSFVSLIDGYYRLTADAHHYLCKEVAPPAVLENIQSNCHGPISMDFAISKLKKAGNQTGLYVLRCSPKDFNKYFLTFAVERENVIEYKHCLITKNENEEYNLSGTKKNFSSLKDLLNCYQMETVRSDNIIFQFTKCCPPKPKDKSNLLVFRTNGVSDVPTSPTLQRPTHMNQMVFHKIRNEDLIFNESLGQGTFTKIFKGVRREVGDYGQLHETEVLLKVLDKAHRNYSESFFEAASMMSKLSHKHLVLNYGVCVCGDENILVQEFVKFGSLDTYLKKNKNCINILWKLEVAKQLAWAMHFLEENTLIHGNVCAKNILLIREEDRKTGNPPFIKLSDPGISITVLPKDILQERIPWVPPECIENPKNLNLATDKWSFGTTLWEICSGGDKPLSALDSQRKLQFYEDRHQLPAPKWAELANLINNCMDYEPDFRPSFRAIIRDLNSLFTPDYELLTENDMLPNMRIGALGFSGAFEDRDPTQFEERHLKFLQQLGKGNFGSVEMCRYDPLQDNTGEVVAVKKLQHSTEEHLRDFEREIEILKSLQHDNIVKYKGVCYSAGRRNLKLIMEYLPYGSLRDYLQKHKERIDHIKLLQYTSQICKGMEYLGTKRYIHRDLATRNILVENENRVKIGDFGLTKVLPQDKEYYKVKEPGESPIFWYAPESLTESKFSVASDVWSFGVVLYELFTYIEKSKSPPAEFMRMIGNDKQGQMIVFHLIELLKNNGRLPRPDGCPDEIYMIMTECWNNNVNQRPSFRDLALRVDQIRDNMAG

[5] = target: T5, Receptor-type tyrosine-protein kinase FLT3 (Homo sapiens, UniProt P36888); experiment: Inhibition of FLT3 (unknown origin) using FAM-labeled peptide as substrate preincubated with compound for 10 mins followed by substrate addition and measured after 60 mins in presence of ATP
T5 sequence (P36888 whole entry): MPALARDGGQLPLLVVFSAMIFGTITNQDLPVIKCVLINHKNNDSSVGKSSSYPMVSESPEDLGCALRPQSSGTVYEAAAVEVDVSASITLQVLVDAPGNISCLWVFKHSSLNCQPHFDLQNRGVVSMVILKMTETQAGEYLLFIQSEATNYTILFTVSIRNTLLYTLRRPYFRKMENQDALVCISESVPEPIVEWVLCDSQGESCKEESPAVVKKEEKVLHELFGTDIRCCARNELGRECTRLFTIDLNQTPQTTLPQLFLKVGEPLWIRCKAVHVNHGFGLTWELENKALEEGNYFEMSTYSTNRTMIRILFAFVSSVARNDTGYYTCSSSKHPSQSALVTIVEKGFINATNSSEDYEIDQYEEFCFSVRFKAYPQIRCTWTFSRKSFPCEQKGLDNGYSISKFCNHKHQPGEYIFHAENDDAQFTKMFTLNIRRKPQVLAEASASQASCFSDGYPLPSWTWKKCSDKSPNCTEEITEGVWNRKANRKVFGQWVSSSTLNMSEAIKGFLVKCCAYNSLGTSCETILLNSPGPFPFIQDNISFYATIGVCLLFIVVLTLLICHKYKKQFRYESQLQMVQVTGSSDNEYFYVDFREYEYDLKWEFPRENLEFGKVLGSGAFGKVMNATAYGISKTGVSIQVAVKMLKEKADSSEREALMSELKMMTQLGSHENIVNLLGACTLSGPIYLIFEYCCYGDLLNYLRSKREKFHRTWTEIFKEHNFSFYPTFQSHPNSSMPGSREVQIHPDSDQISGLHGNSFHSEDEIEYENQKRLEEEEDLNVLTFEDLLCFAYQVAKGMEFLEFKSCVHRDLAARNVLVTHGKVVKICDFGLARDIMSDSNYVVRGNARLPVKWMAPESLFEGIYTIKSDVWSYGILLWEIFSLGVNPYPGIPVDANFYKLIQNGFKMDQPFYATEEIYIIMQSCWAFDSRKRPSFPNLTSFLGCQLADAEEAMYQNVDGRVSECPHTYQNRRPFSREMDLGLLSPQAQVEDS

[6] = target: T4, Tyrosine-protein kinase JAK2; experiment: Inhibition of JAK2 (unknown origin) using FAM-labeled peptide as substrate preincubated with compound for 10 mins followed by substrate addition and measured after 60 mins in presence of ATP
[7] = target: T4, Tyrosine-protein kinase JAK2
[8] = target: T5, Receptor-type tyrosine-protein kinase FLT3
[9] = target: T3, Non-receptor tyrosine-protein kinase TYK2; experiment: Inhibition of recombinant TYK2 (unknown origin) incubated for 120 mins in presence of [33P]-ATP by hotspot assay
MIA PaCa-2 = experiment: Antiproliferative activity against human MIA PaCa-2 cells assessed as inhibition of cell growth incubated for 48 hrs by MTS assay; format: functional, cell-based; conditions: MIA PaCa-2, 48 h
[10] = target: T2, Proto-oncogene tyrosine-protein kinase Src; experiment: Inhibition of recombinant c-Src (unknown origin) incubated for 120 mins in presence of [33P]-ATP by hotspot assay
[11] = target: T4, Tyrosine-protein kinase JAK2; experiment: Inhibition of recombinant JAK2 (unknown origin) incubated for 120 mins in presence of [33P]-ATP by hotspot assay
[12] = target: T1, Tyrosine-protein kinase JAK1; experiment: Inhibition of recombinant JAK1 (unknown origin) incubated for 120 mins in presence of [33P]-ATP by hotspot assay
[13] = target: Serine/threonine-protein kinase MARK2 (Homo sapiens, UniProt Q7KZI7); experiment: Inhibition of PAR1B-a (unknown origin)
[14] = Inhibition of JAK/STAT signaling pathway in human CD14 positive monocytes assessed as inhibition of GM-CSF stimulated STAT5 phosphorylation at Y694 residue preincubated for 1 hr followed by GM-CSF stimulation and measured after 15 mins by flow cytometry analysis; format: cell-based
[15] = target: Ribosomal protein S6 kinase alpha-3 (Homo sapiens, UniProt P51812); experiment: Inhibition of RSK2 (unknown origin)
[16] = target: Serine/threonine-protein kinase 3 (Homo sapiens, UniProt Q13188); experiment: Inhibition of MST2 (unknown origin)
[17] = target: Serine/threonine-protein kinase Chk1 (Homo sapiens, UniProt O14757); experiment: Inhibition of CHK1 (unknown origin)
Serine/threonine-protein kinase Chk1, sequence (O14757 whole entry): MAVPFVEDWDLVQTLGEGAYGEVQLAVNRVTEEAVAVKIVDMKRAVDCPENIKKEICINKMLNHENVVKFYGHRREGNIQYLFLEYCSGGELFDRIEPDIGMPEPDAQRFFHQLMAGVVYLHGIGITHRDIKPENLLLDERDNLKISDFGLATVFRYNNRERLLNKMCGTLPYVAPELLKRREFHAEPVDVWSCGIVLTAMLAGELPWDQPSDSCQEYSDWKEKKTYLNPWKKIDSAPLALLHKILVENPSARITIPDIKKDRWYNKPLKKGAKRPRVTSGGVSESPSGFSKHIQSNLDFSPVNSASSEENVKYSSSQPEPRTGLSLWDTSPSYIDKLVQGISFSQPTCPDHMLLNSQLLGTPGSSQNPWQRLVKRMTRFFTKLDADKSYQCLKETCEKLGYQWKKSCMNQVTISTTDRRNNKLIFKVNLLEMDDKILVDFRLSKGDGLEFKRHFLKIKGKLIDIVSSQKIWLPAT

[18] = Inhibition of JAK/STAT signaling pathway in human CD14 positive monocytes assessed as inhibition of IL-4 stimulated STAT6 phosphorylation at Y641 residue preincubated for 1 hr followed by IL-4 stimulation and measured after 15 mins by flow cytometry analysis; format: cell-based
[19] = Inhibition of JAK/STAT signaling pathway in human CD8-positive T cells assessed as inhibition of IL-4 stimulated STAT6 phosphorylation at Y641 residue preincubated for 1 hr followed by IL-4 stimulation and measured after 15 mins by flow cytometry analysis; format: cell-based; conditions: CD8-positive T cell
[20] = Inhibition of JAK/STAT signaling pathway in human CD4+ve Th cells assessed as inhibition of IL-4 stimulated STAT6 phosphorylation at Y641 residue preincubated for 1 hr followed by IL-4 stimulation and measured after 15 mins by flow cytometry analysis; format: cell-based
[21] = target: Ribosomal protein S6 kinase alpha-6 (Homo sapiens, UniProt Q9UK32); experiment: Inhibition of RSK4 (unknown origin)
[22] = Inhibition of JAK/STAT signaling pathway in human CD19 positive B cells assessed as inhibition of IL-4 stimulated STAT6 phosphorylation at Y641 residue preincubated for 1 hr followed by IL-4 stimulation and measured after 15 mins by flow cytometry analysis; format: cell-based; conditions: CD19 positive B cell
[23] = target: Serine/threonine-protein kinase MARK1 (Homo sapiens, UniProt Q9P0L2); experiment: Inhibition of MARK1 (unknown origin)
[24] = target: Mitogen-activated protein kinase kinase kinase 9 (Homo sapiens, UniProt P80192); experiment: Inhibition of MLK1 (unknown origin)
[25] = Inhibition of JAK/STAT signaling pathway in human CD14 positive monocytes assessed as inhibition of IL-6 stimulated STAT3 phosphorylation at Y705 residue preincubated for 1 hr followed by IL-6 stimulation and measured after 15 mins by flow cytometry analysis; format: cell-based
[26] = target: Vascular endothelial growth factor receptor 3 (Homo sapiens, UniProt P35916); experiment: Inhibition of FLT4 (unknown origin)
[27] = target: Proto-oncogene tyrosine-protein kinase receptor Ret (Homo sapiens, UniProt P07949); experiment: Inhibition of RET (unknown origin)
[28] = target: Mitogen-activated protein kinase kinase kinase kinase 2 (Homo sapiens, UniProt Q12851); experiment: Inhibition of GCK (unknown origin)
[29] = Inhibition of JAK/STAT signaling pathway in human CD4+ve Th cells assessed as inhibition of IL-2 stimulated STAT5 phosphorylation at Y694 residue preincubated for 1 hr followed by IL-2 stimulation and measured after 15 mins by flow cytometry analysis; format: cell-based
[30] = target: Tyrosine-protein kinase ITK/TSK (Homo sapiens, UniProt Q08881); experiment: Inhibition of ITK (unknown origin)
Tyrosine-protein kinase ITK/TSK, sequence (Q08881 whole entry): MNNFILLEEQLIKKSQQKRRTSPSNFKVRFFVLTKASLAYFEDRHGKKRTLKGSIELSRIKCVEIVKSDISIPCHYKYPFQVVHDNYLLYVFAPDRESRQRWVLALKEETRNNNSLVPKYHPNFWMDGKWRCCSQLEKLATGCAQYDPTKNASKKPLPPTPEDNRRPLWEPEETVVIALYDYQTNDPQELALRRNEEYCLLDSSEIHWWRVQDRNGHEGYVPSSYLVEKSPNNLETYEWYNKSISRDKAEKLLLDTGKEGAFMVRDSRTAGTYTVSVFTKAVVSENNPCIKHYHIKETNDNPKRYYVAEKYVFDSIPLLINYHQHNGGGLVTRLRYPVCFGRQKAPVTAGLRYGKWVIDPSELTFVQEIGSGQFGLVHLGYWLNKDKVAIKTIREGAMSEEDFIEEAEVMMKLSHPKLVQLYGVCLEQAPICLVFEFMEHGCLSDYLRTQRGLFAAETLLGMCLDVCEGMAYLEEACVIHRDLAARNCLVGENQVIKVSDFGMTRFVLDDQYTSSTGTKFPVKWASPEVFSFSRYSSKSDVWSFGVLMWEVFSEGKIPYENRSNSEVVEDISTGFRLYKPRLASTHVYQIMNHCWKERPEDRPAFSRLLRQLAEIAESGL

[31] = Inhibition of JAK/STAT signaling pathway in human CD8-positive T cells assessed as inhibition of IL-2 stimulated STAT5 phosphorylation at Y694 residue preincubated for 1 hr followed by IL-2 stimulation and measured after 15 mins by flow cytometry analysis; format: cell-based; conditions: CD8-positive T cell
[32] = Cytotoxicity against human CLL cells assessed inhibition of cell growth incubated for 72 hrs by propidium iodide staining based flow cytometry analysis; format: functional
[33] = target: Macrophage colony-stimulating factor 1 receptor (Homo sapiens, UniProt P07333); experiment: Inhibition of FMS (unknown origin)

- IC50 [5]: 1.4 nM
- IC50 [6]: 2.9 nM
Compound: CC(=O)c1ccc(NC(=O)N2CCN(c3ccnc(Nc4ccc(N5CCOCC5)cc4)n3)CC2)cc1

- IC50 [7]: 70 nM
- IC50 [8]: 190 nM
Compound: COc1ccc2cc1COC/C=C/COCc1cccc(c1)-c1ccnc(n1)N2

More lines, now with the values behind:

Compound: CN1C/C=C/CCOc2cccc(c2)-c2ccnc(n2)Nc2cccc(c2)C1 [ZOTIRACICLIB]
- inhibition in vivo at 40 mg/kg (MV4-11): 113%

Compound: O=C1Nc2cc(Br)ccc2/C1=C1/Nc2ccccc2/C1=N\OCCN1CCNCC1
- IC50 [1]: 600 nM
- IC50 [2]: 0.2 nM
- IC50 [3]: 50 nM
- inhibition in vivo at 25 mg/kg (A2058): 50%
- IC50 [4]: 28 nM

Compound: COc1ccc2c(c1)/C(=C1/Nc3ccccc3/C1=N\OCC(O)CO)C(=O)N2 (configuration not stated)
- IC50 [9]: 0.7 nM
- IC50 (MIA PaCa-2): 680 nM
- IC50 [10]: 10.4 nM
- IC50 [11]: 74.1 nM
- IC50 [12]: 10.4 nM

Compound: CCS(=O)(=O)N1CCN(c2ccc(Nc3ncc(C(N)=O)c(NC4CC4)n3)cc2)CC1 [CERDULATINIB]
- IC50 [13]: 4 nM
- IC50 [8]: 4 nM
- IC50 [14]: > 4000 nM
- IC50 [15]: 4 nM
- IC50 [16]: 4 nM
- IC50 [17]: 4 nM
- IC50 [18]: < 1000 nM
- IC50 [19]: < 1000 nM
- IC50 [20]: < 1000 nM
- IC50 [21]: 4 nM
- IC50 [22]: < 1000 nM
- IC50 [23]: 4 nM
- IC50 [24]: 4 nM
- IC50 [25]: < 1000 nM
- IC50 [26]: 4 nM
- IC50 [27]: 4 nM
- IC50 [28]: 4 nM
- IC50 [29]: < 1000 nM
- IC50 [30]: 4 nM
- IC50 [31]: < 1000 nM
- IC50 [32]: 370 nM
- IC50 [33]: 4 nM
